# Measured values from ChEMBL document CHEMBL3507680, “University of Dundee, Gates Library screen for HepG2 cell viability”.
# Experiment: Human HepG2 cell viability assay in 384 well format
# Format: toxicity, cell-based
# Design: dose 125 nL, time 70.5 hour; concentration not given beside the values
# Conditions: HepG2 cells, read-out: Inhibition
row,SMILES,cytotoxicity at 70.5 h [%]
1,CC(C)N(CCCNC(=O)C1CCCN(C(N)=O)C1)S(C)(=O)=O (stereo unspecified),-5.29
2,Cc1nc2cc(NC(=O)Cn3ncc(N4CCCC4)cc3=O)ccc2s1,-4.89
3,COCc1cncc2c1CCN(C(=O)c1cscn1)C2,20.4
4,CN(c1ncc(S(N)(=O)=O)s1)C1CCC1,-9.06
5,O=C(c1ccc2ccc(N3CCN(CC4CC4)CC3)n2c1)N1CCCO1,-5.05
6,Cc1ccc(CN2CCC3(CC2)COCCN3S(C)(=O)=O)o1,-4.45
7,CCCn1[nH]cc/c1=N\C(=O)CN1CCCC1Cn1cc(C)cn1 (stereo unspecified),-4.99
8,Cc1nc(C)c(C(=O)N2CCCC(C(=O)c3nccn3C)C2)s1 (stereo unspecified),-2.4
9,CN1CCCc2cc(CNC(=O)c3cc[n+]([O-])cc3)ccc21,-6.17
10,Cc1nc(-c2ccc(S(=O)(=O)N3CCCCC3)cc2)co1,-8.94
11,Cc1nc(CN2CCC3(CCN(Cc4cnn(C)c4)C3)C2=O)cs1 (stereo unspecified),-13.8
12,COC(=O)c1cccc(C2CNCCN2C(C)=O)c1 (stereo unspecified),21.6
13,Cc1ccc(OCCSC2=NCCN2)cc1,-4.93
14,CCOc1nnc(CN2CCN(CCOC)C(CC)C2)s1 (stereo unspecified),12.8
15,O=C(N1CCCC1)N1CCN(Cc2cccnc2)c2ncccc2C1,-10.8
16,Cc1nc(CNCc2ccc(N3CCC(CO)CC3)nc2)cs1,-1.44
17,FC(F)(F)c1ccc(-c2cnc(C3CCCN3)cn2)cc1 (stereo unspecified),13.6
18,O=C(c1ccc2c(c1)[nH]c(=O)n2C1CCCC1)N1CCSCC1,-4.63
19,O=C(c1cc(F)ccc1Br)N1CCN(C(=O)C2CC2)CC1,17.3
20,c1cc(CN2CCc3ncnc(C4CCOC4)c3CC2)ccn1 (stereo unspecified),-6.5
21,CC[C@@H](CO)Nc1nccc(-c2cnc3sc(C)cn3c2=O)n1,15.2

row,SMILES,cytotoxicity at 70.5 h [%]
1,CCc1c(C(=O)NCC2CCS(=O)(=O)C2)cnn1-c1ccc(C)cc1 (stereo unspecified),-20
2,CC(NC(=O)c1cc(Br)c2c(c1)OCCO2)C(N)=O (stereo unspecified),16.6
3,Cc1ccoc1CNC(C)c1nnc2n1CCCC2 (stereo unspecified),13
4,COCCNc1nc(-c2ccc(S(=O)(=O)N3CCCCCC3)cc2)cs1,-5.83
5,Cc1cccc2c1cnn2CCCNC(=O)C1CC1,-4.27
6,Cc1cc(Oc2ccc(NC(=O)C3CC3)cc2)cc(C2CCNCC2)n1,-4.04
7,O=S1(=O)NC2(CCCN(CCc3ccccc3)C2)COc2ccccc21 (stereo unspecified),0.68
8,CCOC(=O)C1CCCN(c2ccc(-c3nc(C)no3)cn2)C1 (stereo unspecified),-4.38
9,O=C(NC1CC1)[C@@]12CCO[C@@H]1CCN(Cc1ccc3c(c1)OCO3)C2,2.54
10,CN1C[C@H]2CCN(C(=O)NC3CCCC3)CC[C@H]2S1(=O)=O,-17.8
11,CC(=O)NCCNC(=O)C(c1ccccc1C)N(C)C (stereo unspecified),12.4
12,CCOCc1nnc(NCc2ccsc2)o1,-3.37
13,Cc1ccc(CN2CCCC3(CCN(S(=O)(=O)N(C)C)C3)C2)o1 (stereo unspecified),-9.63
14,O=c1c2cc3c(cc2nnn1Cc1ccccc1Cl)OCCO3,12.4
15,CC(=O)OC1CN(c2nc3c(C)cccc3s2)C1,-15.1
16,O=C1CN(C(=O)c2cccc(C(F)(F)F)c2)CC(O)CN1CC1CC1 (stereo unspecified),20.9
17,Cc1ccc(S(=O)(=O)NCCNC(=O)c2ccoc2)cc1C,-7.77
18,N#Cc1c(C2CC2)cc(-c2ccc(O)cc2)nc1N,1.29
19,CCc1cc(CN(C)C(=O)c2cnc3c(c2)nc(N)n3CC)on1,-2.5
20,Cc1noc(CNc2ccccc2N2CCCCC2)n1,-2.98
21,CC(C)CC(NCc1cccs1)c1ccccn1 (stereo unspecified),-13.2

row,SMILES,cytotoxicity at 70.5 h [%]
1,O=C(NCC1CC1)[C@@H]1CCO[C@@H]2CCN(c3ncccn3)C[C@@H]21,-3.18
2,Cc1cc(C)cc(C(=O)N2CCCN(CC(N)=O)CC2)c1,37.8
3,CCc1noc(C2CCCCN2C(=O)c2cc(C)oc2C)n1 (stereo unspecified),11.6
4,Nc1nc(CCC(=O)N2CCOC(CC3CCCCC3)C2)cs1 (stereo unspecified),-2.5
5,COCCc1noc(CN2CCCCC2Cn2nc(C)cc2C)n1 (stereo unspecified),-1.86
6,Cc1ccc(C(=O)NC(CN2CCCC2)c2ccccc2)c(=O)[nH]1 (stereo unspecified),-3.04
7,O=c1c(Cc2ccc(Cl)cc2Cl)c(O)ccn1CC1CC1,-5.97
8,CSc1ccc(NCC(=O)Nc2c(C)nn(C)c2C)cc1F,-4.28
9,CC(C)CC(O)C1CCN(C(=O)c2coc(CN3CCOCC3)c2)CC1 (stereo unspecified),-7.32
10,Cc1nnc([C@H]2C[C@@H]3CCN(Cc4ccc(C)o4)C[C@H]3O2)[nH]1,-7.28
11,c1cc2c(cc1OC[C@@H]1CCCN3CCCC[C@H]13)OCCO2,3.85
12,COc1cccc(CCC2CCCN(C(=O)c3ccc(=O)n(C)n3)C2)c1 (stereo unspecified),-6.31
13,CN(C)c1cccc(C2CCN(c3ncccn3)CC2)n1,-3.49
14,Cc1ccc(-c2nc(C(=O)N3CCCC(C(N)=O)C3)cs2)c(C)c1 (stereo unspecified),-8.34
15,Cn1cccc1-c1cc(C(=O)NCCc2nnc(N)s2)[nH]n1,4.96
16,CC(C)[C@@H]1CN(CCCOc2ccc(F)cc2)C[C@H]1NS(C)(=O)=O,-8.14
17,O=C(Cc1ccccn1)N1C[C@H]2CCC[C@@]2(COc2ccccn2)C1,6.94
18,CC(C)NC(=O)N1CCC(c2nnc3ccc(C(=O)N(C)C)cn23)C1 (stereo unspecified),-1.02
19,CCN(Cc1ccc(F)c(F)c1)Cc1nc2c(cnn2C)c(=O)[nH]1,-4.48
20,Cc1c[nH]c(CN2CCOC(c3ccc(F)cc3)C2)c(C)c1=O (stereo unspecified),-3.86
21,Cc1ccc(NC(=O)c2cccc(OCc3nnnn3C)c2)nc1,-9.18

row,SMILES,cytotoxicity at 70.5 h [%]
1,CC(C(=O)NCC(F)(F)F)N1CCC(N2CCN(C)C2=O)CC1 (stereo unspecified),-8.46
2,Cc1nnc(CN2CCC3(CCC(=O)N([C@H]4CC[C@H](O)CC4)C3)CC2)o1,-8.57
3,CN1CCCc2cc(CNC(=O)c3ccc(-n4cnnc4)cc3)ccc21,-2.87
4,CNC(=O)CCS(=O)(=O)Cc1coc(-c2ccc(F)cc2)n1,-20.2
5,Cn1ccc(C(=O)N2CCCCC23CC(=O)N(Cc2ccccc2)C3)n1 (stereo unspecified),1.38
6,Cc1nc(N2CCN(C(=O)NCc3cscn3)CC2)sc1C,-2.92
7,Cc1ccc(-c2nc(CN3CCCC3Cn3cncn3)co2)cc1 (stereo unspecified),1.81
8,O=C1CC2(CCN(Cc3cccnc3)C2)CN1c1ccc2c(c1)OCO2 (stereo unspecified),12.8
9,Cn1ccc(C(=O)N2CCCC(c3cc(O)n(C)n3)C2)n1 (stereo unspecified),28
10,COCCN1CCC(CNC(=O)C2(c3cc(C)cc(C)c3)CC2)CC1,-1.48
11,COc1ccnc(N2CCN(CC(=O)N3CCOCC3)CC2)n1,2.32
12,COCCN1CCC(CN(CC2CCCO2)C(=O)Cn2cccn2)CC1 (stereo unspecified),-4.66
13,O=C(c1ccco1)N1CC[C@@H](N2CCOCC2)[C@@H]1Cc1ccccc1,-7.17
14,Cc1ncsc1CCN(C)C(=O)c1ccc(Cn2cnnn2)cc1,3.1
15,Cc1nn(CC(=O)N2CCN(c3ccccc3F)CC2)c(C)c1Cl,-2.28
16,Oc1cc(-c2cccs2)nc(C2CCCN(CC3=CCCOC3)C2)n1 (stereo unspecified),-9.88
17,CCc1n[nH]c(C2CN(C(=O)c3ncoc3CC)CCO2)n1 (stereo unspecified),-13.4
18,CCC(C)(C)N(C)CCOc1cccc(S(C)(=O)=O)c1,-3.09
